Assay results from patent publication US20180280393A1, “METHODS AND COMPOSITIONS FOR TREATMENT OF METASTATIC AND REFRACTORY CANCERS AND TUMORS” (The Wistar Institute of Anatomy and Biology, priority 2015, published 2018).
One block for each compound: values may come before it.

Tests used:
[1] = tested on: human T cells; assay: ConA-induced activation and expansion of human T cells (high-throughput screen); assay type: cell-based
Experimental: T cell stimulation—For human T cell proliferation assays, peripheral blood lymphocytes were obtained by leukapheresis/elutriation and Miltenyi bead-purified and K562 cells expressing human CD32 were generated as previously described^41. […] PBMCs were labeled with CELLTRACE Violet stain (Invitrogen) according to the manufacturer's instructions and cocultured with loaded K32 cells at a 10:1 T cells:K32 ratio or activated with ConA (2 μg/ml, Sigma). Proliferation of stimulated T cells was determined 7 days later by FACS and Division Index was calculated using FlowJo software.
(§1) EC50 values were calculated from normalized percent inhibition data using non-linear curve fitting in PRISM software.

[2] = tested on: Brpkp110 cells; assay: Brpkp110 cell proliferation, MTS assay; assay type: cell-based, mouse; settings: in vitro, 2 days
Experimental: (§2) Cell proliferation assays—Cells were plated in 96-well plates. Compounds were added the next morning, and cell proliferation was measured 48 hrs later with the […] 96 MTS assay (Promega) according to the manufacturer's instructions. Molecular screening of compounds on A2780 cells was performed by adding compounds the morning after plating in 384-well plates and measuring proliferation 72 hrs later with resazurin fluorescence. Normalized percent inhibition (NPI) was calculated with respect to fluorescence values obtained with DMSO negative control and doxorubicin (5 μM) positive control as NPI=100%*(DMSO−compound)/(DMSO−doxorubicin). TCR ligation of human CD8 T cells

[3] = tested on: osteopontin (SPP1); assay: LC-MS/MS of culture supernatants from Brpkp110 cells; assay type: cell-based, mouse; settings: 200 nM, 40 hrs
Experimental: Supernatants were collected, centrifuged, passed through a 0.22 μm filter, and concentrated by centrifugation in Amicon 3000 MWCO tubes (EMD Millipore). Concentrated sups were run 0.5 cm on a NuPage 12% Gel with MES buffer, extracted, and digested with trypsin.
Liquid chromatography tandem mass spectrometry (LC-MS/MS) analysis was performed by the Wistar Proteomics Facility using a Q Exactive Plus mass spectrometer (Thermo Scientific) coupled with a Nano-ACQUITY UPLC system (Waters). Samples were injected onto a UPLC Symmetry trap column (180 μm i.d.×2 cm packed with 5 μm C18 resin; Waters), and tryptic peptides were separated by RP-HPLC on a BEH C18 nanocapillary analytical column (75 μm i.d.×25 cm, 1.7 μm particle size; Waters) using a gradient formed by solvent A (0.1% formic acid in water) and solvent B (0.1% formic acid in acetonitrile). Peptides were eluted at 200 nL/min for 5-30% B over 225 min, 30-80% B over 5 min, constant 80% B for 10 min before returning to 5% B over 1 min. A 30-min blank gradient was run between sample injections to minimize carryover. Eluted peptides were analyzed by the mass spectrometer set to repetitively scan m/z from 400 to 2000. […]
MS data were analyzed with MaxQuant 1.5.2.8 software^42. […]

[4] = tested on: ERK1/2 phosphorylation; assay: TCR ligation of human CD8 T cells, Western blot for ERK1/2 phosphorylation; assay type: cell-based
Experimental: FIG. 2C is a blot showing FACS-sorted human CD8 T cells that were stimulated by anti-CD3/CD28 crosslinking in the presence of the indicated compounds as described in methods. After 10 min, cells were harvested for Western blotting.
CD8+ cells were sorted from PBMCs and rested overnight in R10. T cells (0.5×10^6 per condition) were stained with OKT3-biotin (BioLegend, 10 μg/ml) for 15 mins on ice, and washed in cold PBS. TCR ligation was performed by adding streptavidin (Promega, 25 μg/ml) and anti-CD28 (Millipore, clone 15E8, 1 μg/ml) in the presence of indicated inhibitors for 10 min at 37° C.
Western blotting—Cells were lysed in RIPA buffer (Thermo Scientific) with protease inhibitors (Complete Protease Inhibitor Cocktail Tablets, Roche) and phosphatase inhibitors (Halt Phosphatase Inhibitor, Thermo Scientific, and Na3VO4, 1 mM) and cleared by centrifugation. Proteins were quantified by BCA assay (Thermo Scientific), diluted in reducing lamelli buffer, denatured by incubation at 95° C., run on mini Protean TGX Ready Gels (Bio-Rad Laboratories), transferred to a nitrocellulose membrane, blocked, and incubated with primary antibodies for p-ERK1/2 (Cell Signaling Technologies, clone D13.14.4E), p-AKT (Cell Signaling Technologies, clone D9E), beta-tubulin (Cell Signaling Technologies, clone 9F3), beta-actin (Sigma, clone AC-15), or IGF-1R (Cell Signaling Technologies, #3027). Immunoreactive bands were developed using horseradish peroxidase-conjugated secondary antibodies (Bio-Rad Laboratories) and ECL substrate (GE Healthcare).

[5] = tested on: human T cells; assay: Cytokine rescue of human T cell proliferation from MEK inhibition; assay type: cell-based
Experimental: Proliferation of CD8 T cells after 7 days is shown.
FIG. 2D is a graph showing that human PBMCs were activated as in FIG. 2B with the indicated compounds, BKM120=2 μM.
Reported are percentages of cells that proliferated with GDC0973 relative to vehicle treatment with the same cytokines after 7 days. Stains are not depicted.
T cell stimulation—For human T cell proliferation assays, peripheral blood lymphocytes were obtained by leukapheresis/elutriation and Miltenyi bead-purified and K562 cells expressing human CD32 were generated as previously described^41. K32 were γ-irradiated (100 Gy) and loaded with anti-CD3 (500 ng/ml, clone OKT3; eBioscience) plus anti-CD28 (500 ng/ml, clone 15E8; EMD Millipore) antibodies at room temperature for 10 minutes. PBMCs were labeled with CELLTRACE Violet stain (Invitrogen) according to the manufacturer's instructions and cocultured with loaded K32 cells at a 10:1 T cells:K32 ratio or activated with ConA (2 μg/ml, Sigma). Proliferation of stimulated T cells was determined 7 days later by FACS and Division Index was calculated using FlowJo software.

[6] = tested on: A2780 ovarian cancer cells; assay: Molecular screening of compounds on A2780 cell proliferation (resazurin fluorescence); assay type: cell-based, human; settings: except at a high concentration
Experimental: as §2, §1

[7] = tested on: human T cells; assay: aAPC (anti-CD3/anti-CD28)-induced human T cell proliferation, CELLTRACE; assay type: cell-based; settings: 7 days
Experimental: Four plots show proliferation of CD8 cells after 7 days is shown. […] Proliferation of CD8 cells after 7 days is shown. T cell stimulation-For human T cell proliferation assays, peripheral blood lymphocytes were obtained by leukapheresis/elutriation and Miltenyi bead-purified and K562 cells expressing human CD32 were generated as previously described^41. […] were γ-irradiated (100 Gy) and loaded with anti-CD3 (500 ng/ml, clone OKT3; eBioscience) plus anti-CD28 (500 ng/ml, clone 15E8; EMD Millipore) antibodies at room temperature for 10 minutes. PBMCs were labeled with CELLTRACE Violet stain (Invitrogen) according to the manufacturer's instructions and cocultured with loaded […] cells at a 10:1 T cells:[…] ratio or activated with ConA (2 μg/ml, Sigma). Proliferation of stimulated T cells was determined 7 days later by FACS and Division Index was calculated using FlowJo software.

[8] = tested on: MCF-7 tumor cells; assay: MCF-7 cell proliferation, MTS assay; assay type: cell-based, human; settings: 2 days
Experimental: Representative results from one of two independent experiments.
as §2

EC50 ([1]; T-cell, 168 h, human T cells activated with ConA for 7 days, N/A = ambiguous curve fits or EC50 greater than the highest concentration tested (25 μM)): 0.337 nM
Compound: CC(=O)Nc1cccc(-n2c(=O)n(C3CC3)c(=O)c3c(Nc4ccc(I)cc4F)n(C)c(=O)c(C)c32)c1 [trametinib]
growth compared to vehicle [2]: 70%
decrease of osteopontin (SPP1) in Brpkp110 supernatants [3]: > 18 fold

Compound: CCCCCCCCCCCCCC(=O)O[C@@H]1[C@@H](C)[C@@]2(O)[C@@H](C=C(CO)C[C@]3(O)C(=O)C(C)=C[C@@H]23)[C@@H]2C(C)(C)[C@]12OC(C)=O [PMA, phorbol-12-myristate-13-acetate]
ERK phosphorylation under PI3K inhibition ([4]; without fully restoring AKT phosphorylation): completely overcomes the suppressive effect

Compound: IL-15: recombinant human IL-15 (Novoprotein), proliferative cytokine
rescue of T cell proliferation in the presence of the MEK inhibitors ([5]; GDC0973 or trametinib): able to rescue T cell proliferation
rescue of T cell expansion when PI3K and MEK inhibitors were combined ([5]; trametinib + BKM120): could not be fully rescued
rescue of the defect in ERK phosphorylation in the presence of BKM120 ([4]; pan-PI3K inhibitor BKM120 present): unable to rescue
rescue of early TCR-induced MAPK signaling (ERK1/2 phosphorylation) from MEK inhibition ([4]; within 10 minutes): can rescue

Compound: C[C@]1(O)C[C@@H](c2nc(-c3ccc4ccc(-c5ccccc5)nc4c3)c3c(N)nccn32)C1 [OSI906]
activity on T cells ([1]; except at a high concentration): did not show any activity
activity on A2780 cells [6]: did not show any activity
proliferation of human T cells in response to aAPC coated with agonistic CD3 and CD28 antibodies [7]: did not impact
tumor cell proliferation of MCF-7 cells [8]: a reduction in tumor cell proliferation at concentrations that did not affect T cells
